Laboratory results: patent US20100286136A1, “DIHYDRONAPHTHYRIDINYL AND RELATED COMPOUNDS FOR USE IN TREATING OPHTHALMOLOGICAL DISORDERS” (priority 2009, published 2010)

biological target: T1, CCR2b (Homo sapiens, UniProt P41597); assay: AequoScreen CCR2b calcium flux assay, antagonist mode against reference agonist MCP-1; type: cell-based; settings: AequoScreen CCR2b (FAST-060A) cells; inhibition of reference agonist MCP-1 at its EC80; read-out: IC50 (μM) Ca^++flux
T1 construct: host or cells: AequoScreen CCR2b cells
T1 sequence (P41597 1-360 isoform P41597-2): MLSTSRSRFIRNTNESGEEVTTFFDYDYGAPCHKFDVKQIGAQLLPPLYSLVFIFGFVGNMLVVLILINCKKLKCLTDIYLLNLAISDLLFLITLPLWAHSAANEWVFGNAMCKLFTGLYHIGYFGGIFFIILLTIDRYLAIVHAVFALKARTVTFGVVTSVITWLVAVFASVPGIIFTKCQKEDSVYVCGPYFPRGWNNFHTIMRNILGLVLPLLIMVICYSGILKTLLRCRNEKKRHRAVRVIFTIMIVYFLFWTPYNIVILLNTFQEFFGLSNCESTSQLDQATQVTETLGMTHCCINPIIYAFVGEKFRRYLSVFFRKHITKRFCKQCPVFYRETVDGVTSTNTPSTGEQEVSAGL
Method: The biological activity of the compounds described herein can be evaluated using assays known in the art, such as the AequoScreen™ assay.
AequoScreen™ CCR2b (FAST-060A) cells grown to mid-log phase in culture media without antibiotics are detached with PBS-EDTA, centrifuged and resuspended in assay buffer (DMEM/HAM's F12 with HEPES, without phenol red+0.1% BSA protease free) at a concentration of 1×10^6 cells/mL. Cells are incubated at room temperature for at least 4 hours with coelenterazine h. Dose response curves are performed before testing. The reference agonist is MCP-1.
For agonist testing, 50 μL of cell suspension is mixed with 50 μL of test compound in a 96-well plate. The resulting emission of light is recorded using a Hamamatsu Functional Drug Screening System 6000 (FDSS 6000).
Following an incubation of 15 minutes after the first injection, 100 μL of the resulting cell suspension containing the test compound is mixed with 100 μL of the reference agonist in the 96 well test plate. The resulting emission of light is recorded using the same luminometer as for agonist testing.
Agonist activity of a test compound can be expressed as a percentage of the activity of the reference agonist at its EC100 concentration. Antagonist activity of a test compound can be expressed as a percentage of the inhibition of reference agonist activity at its EC80 concentration.

| SMILES | IC50 [µM] |
| --- | --- |
| COCC1(C(=O)N2CCc3ncc(C(F)(F)F)cc3C2)CCN(C2CCC(c3ccc(F)cc3)CC2)C1 (single isomer, unassigned) [Example 56, 57 (Isomer I), (1-(4-(4-Fluorophenyl)cyclohexyl)-3-(methoxymethyl)pyrrolidin-3-yl)(3-(trifluoromethyl)-7,8-dihydro-1,6-naphthyridin-6(5H)-yl)methanone] | < 0.2 |
| CC(C)CC1(C(=O)N2CCc3ncc(C(F)(F)F)cc3C2)CCN(Cc2ccc3ccc(=O)n(C)c3c2)CC1 [Example 1, 7-((4-Isobutyl-4-(3-(trifluoromethyl)-5,6,7,8-tetrahydro-1,6-naphthyridine-6-carbonyl)piperidin-1-yl)methyl)-1-methylquinolin-2(1H)-one] | 0.2 to 1 |
| COc1cc(CN2CCC(CC(C)C)(C(=O)N3CCc4ncc(C(F)(F)F)cc4C3)CC2)ccc1O [Example 2, (1-(4-Hydroxy-3-methoxybenzyl)-4-isobutylpiperidin-4-yl)(3-(trifluoromethyl)-7,8-dihydro-1,6-naphthyridin-6(5H)-yl)methanone] | > 1 |
| Cn1c(=O)ccc2ccc(CN3CCC(CC4CC4)(C(=O)N4CCc5ncc(C(F)(F)F)cc5C4)C3)cc21 (centres unmarked) [Example 3, 7-((3-(Cyclopropylmethyl)-3-(3-(trifluoromethyl)-5,6,7,8-tetrahydro-1,6-naphthyridine-6-carbonyl)pyrrolidin-1-yl)methyl)-1-methylquinolin-2(1H)-one] | < 0.2 |
| COc1cc(CN2CCC(CC3CC3)(C(=O)N3CCc4ncc(C(F)(F)F)cc4C3)C2)ccc1O (centres unmarked) [Example 6, (1-(4-Hydroxy-3-methoxybenzyl)-3-(cyclopropylmethyl)pyrrolidin-3-yl)(3-(trifluoromethyl)-7,8-dihydro-1,6-naphthyridin-6(5H)-yl)methanone] | 0.2 to 1 |
| O=C(N1CCc2ncc(C(F)(F)F)cc2C1)C1(CC2CC2)CCN(Cc2ccc(O)c(F)c2)C1 (centres unmarked) [Example 7, (3-(Cyclopropylmethyl)-1-(3-fluoro-4-hydroxybenzyl)pyrrolidin-3-yl)(3-(trifluoromethyl)-7,8-dihydro-1,6-naphthyridin-6(5H)-yl)methanone] | > 1 |
| O=C(N1CCc2ncc(C(F)(F)F)cc2C1)C1(CC2CC2)CCN(CC2CCOCC2)C1 (centres unmarked) [Example 8, (3-(Cyclopropylmethyl)-1-((tetrahydro-2H-pyran-4-yl)methyl)pyrrolidin-3-yl)(3-(trifluoromethyl)-7,8-dihydro-1,6-naphthyridin-6(5H)-yl)methanone] | 0.2 to 1 |
| CC1(C)CC(CN2CCC(CC3CC3)(C(=O)N3CCc4ncc(C(F)(F)F)cc4C3)C2)CCO1 (centres unmarked) [Example 9, (3-(Cyclopropylmethyl)-1-((2,2-dimethyltetrahydro-2H-pyran-4-yl)methyl)pyrrolidin-3-yl)(3-(trifluoromethyl)-7,8-dihydro-1,6-naphthyridin-6(5H)-yl)methanone] | 0.2 to 1 |
| COc1cc2c(cc1CN1CCC(CC3CC3)(C(=O)N3CCc4ncc(C(F)(F)F)cc4C3)C1)OC(C)C2 (centres unmarked) [Example 10, (3-(Cyclopropylmethyl)-1-((5-methoxy-2-methyl-2,3-dihydrobenzofuran-6-yl)methyl)pyrrolidin-3-yl)(3-(trifluoromethyl)-7,8-dihydro-1,6-naphthyridin-6(5H)-yl)methanone] | > 1 |
| Cn1c(=O)sc2ccc(CN3CCC(CC4CC4)(C(=O)N4CCc5ncc(C(F)(F)F)cc5C4)C3)cc21 (centres unmarked) [Example 11, 5-((3-(Cyclopropylmethyl)-3-(3-(trifluoromethyl)-5,6,7,8-tetrahydro-1,6-naphthyridine-6-carbonyl)pyrrolidin-1-yl)methyl)-3-methylbenzo[d]thiazol-2(3H)-one] | < 0.2 |
| O=C(N1CCc2ncc(C(F)(F)F)cc2C1)C1(CC2CC2)CCN(Cc2ccc3sc(=O)[nH]c3c2)C1 (centres unmarked) [Example 12, 5-((3-(Cyclopropylmethyl)-3-(3-(trifluoromethyl)-5,6,7,8-tetrahydro-1,6-naphthyridine-6-carbonyl)pyrrolidin-1-yl)methyl)benzo[d]thiazol-2(3H)-one] | 0.2 to 1 |
| O=C(N1CCc2ncc(C(F)(F)F)cc2C1)C1(CC2CC2)CCN(Cc2ccc3ccc(=O)[nH]c3c2)C1 (centres unmarked) [Example 15, 7-((3-(Cyclopropylmethyl)-3-(3-(trifluoromethyl)-5,6,7,8-tetrahydro-1,6-naphthyridin-6-carbonyl)pyrrolidin-1-yl)methyl)quinolin-2(1H)-one] | > 1 |
| CC(c1ccc2c(c1)n(C)c(=O)n2C)N1CCC(CC2CC2)(C(=O)N2CCc3ncc(C(F)(F)F)cc3C2)C1 (centres unmarked) [Example 16, 5-(1-(3-(Cyclopropylmethyl)-3-(3-(trifluoromethyl)-5,6,7,8-tetrahydro-1,6-naphthyridine-6-carbonyl)pyrrolidin-1-yl)ethyl)-1,3-dimethyl-1H-benzo[d]imidazol-2(3H)-one] | > 1 |
| O=C(N1CCc2ncc(C(F)(F)F)cc2C1)C1(CC2CC2)CCN(Cc2ccc3[nH]ncc3c2)C1 (centres unmarked) [Example 17, (1-((1H-Indazol-5-yl)methyl)-3-(cyclopropylmethyl)pyrrolidin-3-yl)(3-(trifluoromethyl)-7,8-dihydro-1,6-naphthyridin-6(5H)-yl)methanone] | > 1 |
| Cn1c(=O)ccc2cc(CN3CCC(CC4CC4)(C(=O)N4CCc5ncc(C(F)(F)F)cc5C4)C3)ccc21 (centres unmarked) [Example 22, 6-((3-(Cyclopropylmethyl)-3-(3-(trifluoromethyl)-5,6,7,8-tetrahydro-1,6-naphthyridine-6-carbonyl)pyrrolidin-1-yl)methyl)-1-methylquinolin-2(1H)-one] | > 1 |
| Cn1c(=O)oc2ccc(CN3CCC(CC4CC4)(C(=O)N4CCc5ncc(C(F)(F)F)cc5C4)C3)cc21 (centres unmarked) [Example 23, 5-((3-(Cyclopropylmethyl)-3-(3-(trifluoromethyl)-5,6,7,8-tetrahydro-1,6-naphthyridine-6-carbonyl)pyrrolidin-1-yl)methyl)-3-methylbenzo[d]oxazol-2(3H)-one] | < 0.2 |
| CC(C)CC1(C(=O)N2CCc3ncc(C(F)(F)F)cc3C2)CCN(Cc2ccc3oc(=O)n(C)c3c2)C1 (centres unmarked) [Example 24, 5-((3-Isobutyl-3-(3-(trifluoromethyl)-5,6,7,8-tetrahydro-1,6-naphthyridine-6-carbonyl)pyrrolidin-1-yl)methyl)-3-methylbenzo[d]oxazol-2(3H)-one] | < 0.2 |
| COCC1(C(=O)N2CCc3ncc(C(F)(F)F)cc3C2)CCN(Cc2ccc3ccc(=O)n(C)c3c2)C1 (centres unmarked) [Example 25, 7-((3-(Methoxymethyl)-3-(3-(trifluoromethyl)-5,6,7,8-tetrahydro-1,6-naphthyridine-6-carbonyl)pyrrolidin-1-yl)methyl)-1-methylquinolin-2(1H)-one] | < 0.2 |
| COCC1(C(=O)N2CCc3ncc(C(F)(F)F)cc3C2)CCN(Cc2ccc3sc(=O)n(C)c3c2)C1 (centres unmarked) [Example 28, 5-((3-(Methoxymethyl)-3-(3-(trifluoromethyl)-5,6,7,8-tetrahydro-1,6-naphthyridine-6-carbonyl)pyrrolidin-1-yl)methyl)-3-methylbenzo[d]thiazol-2(3H)-one] | < 0.2 |
| COCC1(C(=O)N2CCc3ncc(C(F)(F)F)cc3C2)CCN(C(C)c2ccc3c(c2)n(C)c(=O)n3C)C1 (centres unmarked) [Example 29, 5-(1-(3-(Methoxymethyl)-3-(3-(trifluoromethyl)-5,6,7,8-tetrahydro-1,6-naphthyridine-6-carbonyl)pyrrolidin-1-yl)ethyl)-1,3-dimethyl-1H-benzo[d]imidazol-2(3H)-one] | < 0.2 |
